Data reported in patent US11439627B2, “Pharmaceutical composition for the treatment of autism” (Stalicla S.A., priority 2017, dated 2022).

Columns and labels:
[1] = single dose of 10 mg, healthy adults, in 72 hours; cited from earlier work
[2] = tested on: patients with autism spectrum disorder classified as Phenotype 1; assay: ADI-r scores of ASD phenotype 1 patients under treatment; assay type: in vivo, human; details: after four weeks of ibudilast 0.6 mg/kg daily total, TID
Method: A pharmaceutical composition comprising ibudilast and bumetanide was administered to patients with a diagnosis of autism spectrum disorder as defined in the DSM-5, or PDD-NOS or Asperger syndrome as defined in the DSM-IV. Eligibility criteria: male sex, age 5-50, no current chronic illness, no history of active seizures within 1 year, normal liver, renal and thyroid function. Concomitant medications were permitted if doses were stable for at least 60 days prior to the initiation of the challenge test. Patients with no syndromic or identified genetic etiology. […] Description: Four of the patients characterized as above were administered ibudilast. The four subjects had varying levels of functioning ranging from mild to severe, and varying different levels of verbal and intellectual abilities. IQ values ranged from 61 to 86. All were males. Four patients were treated with ibudilast at a daily total dosage of 0.6 mg/kg, TID. A new treatment regimen was introduced, this time ibudilast at a daily total dosage of 0.6 mg/kg, TID, was administered in conjunction with bumetanide at a daily total dosage of 0.08 mg/kg, BID (with a maximum upper daily dose of […]).

CC(C)C(=O)c1c(C(C)C)nn2ccccc12 [ibudilast]
dose excreted as metabolites in urine [1]: about 60% | ADI-r RI ([2]; Patient 1, baseline 7): 6 | ADI-r C ([2]; Patient 1, baseline 24): 20 | ADI-r SI ([2]; Patient 1, baseline 28): 21 | ADI-r RI ([2]; Patient 2, baseline 5): 5 | ADI-r C ([2]; Patient 2, baseline 19): 15 | ADI-r SI ([2]; Patient 2, baseline 20): 16 | ADI-r RI ([2]; Patient 3, baseline 7): 5 | ADI-r SI ([2]; Patient 3, baseline 14): 12 | ADI-r C ([2]; Patient 3, baseline 18): 14 | ADI-r RI ([2]; Patient 4, baseline 7): 7 | ADI-r C ([2]; Patient 4, baseline 17): 14 | ADI-r SI ([2]; Patient 4, baseline 27): 22
